Data published in patent publication US9593110B2, “Neprilysin inhibitors” (Theravence Biopharma R&D IP, LLC, priority 2014, dated 2017).

Key:
[1] = Rat PO cassette assay (oral bioavailability); format: in vivo, Sprague-Dawley rats; conditions: male, Sprague-Dawley, plasma, single oral gavage vs intravenous dose, 0.5 mg/kg
From the text: Oral bioavailability, or % F, is a measure of the percentage of a drug in an oral dose that actually reaches the systemic circulation. Compound losses can occur due to incomplete formulation dissolution, incomplete absorption due to compound insolubility or instability along the GI, or metabolism in the gut or across the gut wall. The fraction of the dose which reaches the hepatic portal vein must also then pass through the liver before reaching the systemic circulation. Compound metabolism, or “first-pass extraction,” can occur during this initial passage through the liver, and this is an additional potential source of compound loss. Oral bioavailability is calculated as the dose-normalized ratio of drug exposure after an oral dose to that after an intravenous dose, wherein the entire dose is delivered directly to the systemic circulation.
Each cassette study begins with 10 mM DMSO stock solutions of up to 5 different compounds. Typically, compounds are selected such no two compounds dosed in the same cassette have a molecular weight within 5 Da of each other. This simplifies subsequent bioanalysis. Appropriate volumes of each DMSO stock are added into a volume of vehicle (5% sodium bicarbonate, 5% dextrose in H2O) such that the final concentration of each compound is 0.25 mg/mL. Intravenous dosing solutions are sterile-filtered (0.2 μm) prior to dosing.
Pre-cannulated male Sprague-Dawley rats (3 per cassette per route) between 8 and 10 weeks of age were obtained from Harlan Laboratories (Indianapolis, Ind.). Rats received either a single oral gavage or a single intravenous (via lateral tail vein) dose (2 mL/kg) of the dosing solution. The final dose was 0.5 mg/kg. Serial blood samples were harvested via jugular vein cannula at 3 minutes, 15 minutes, 30 minutes, 1 hours, 2 hours, 4 hours, 6 hours, and 24 hours post-dose. Sampling was performed either manually or using automated blood samplers. Samples were collected into microtainer tubes containing EDTA as the anticoagulant and are processed to plasma by refrigerated centrifugation.
Plasma samples were extracted with 3 volumes of MeCN containing a suitable internal standard. Extracts were reconstituted into 3 volumes of water containing 1% formic acid, and analyzed via HPLC-coupled MS/MS. Plasma concentration-time data were analyzed using the Phoenix software (Pharsight Corp., St. Louis, Mo.) to calculate pharmacokinetic parameters.
Compounds of the invention of particular interest were those having a % F>10%, when tested in this assay.

human NEP = human NEP (Homo sapiens (Human), UniProt P08473); test: In vitro enzyme inhibition assay at human NEP; conditions: recombinant human NEP, fluorogenic peptide substrate, 37° C.; for Ki: pKi
Sequence of human NEP (P08473 52-750): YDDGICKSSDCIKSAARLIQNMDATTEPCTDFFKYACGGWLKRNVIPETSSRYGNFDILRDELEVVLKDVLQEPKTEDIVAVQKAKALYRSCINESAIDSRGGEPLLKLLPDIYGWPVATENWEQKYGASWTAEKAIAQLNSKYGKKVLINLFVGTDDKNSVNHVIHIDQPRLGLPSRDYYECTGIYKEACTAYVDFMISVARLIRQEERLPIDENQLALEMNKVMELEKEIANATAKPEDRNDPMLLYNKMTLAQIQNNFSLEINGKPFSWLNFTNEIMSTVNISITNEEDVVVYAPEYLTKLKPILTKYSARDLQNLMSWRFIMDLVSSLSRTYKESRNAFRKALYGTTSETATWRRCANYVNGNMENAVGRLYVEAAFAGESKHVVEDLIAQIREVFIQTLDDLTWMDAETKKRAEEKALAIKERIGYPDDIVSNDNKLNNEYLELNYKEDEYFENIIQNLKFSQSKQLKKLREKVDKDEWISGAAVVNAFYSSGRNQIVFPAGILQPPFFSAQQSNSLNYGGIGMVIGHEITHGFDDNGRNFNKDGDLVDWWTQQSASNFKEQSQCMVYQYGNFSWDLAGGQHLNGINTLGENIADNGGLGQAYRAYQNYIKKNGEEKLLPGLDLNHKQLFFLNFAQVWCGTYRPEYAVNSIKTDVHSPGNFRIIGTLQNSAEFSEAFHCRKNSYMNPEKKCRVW

Compound | bioavailability [1] [%] | Ki (human NEP) [nM] | pKi (human NEP)
CCCCCCOC(=O)[C@H](N)C[C@@H](Cc1ccc(-c2cc(Cl)ccc2F)cc1)NC(=O)c1cnn[nH]1 [Example 14b, (2R,4R)-2-Amino-5-(5′-chloro-2′-fluorobiphenyl-4-yl)-4-[(3H-[1,2,3]triazole-4-carbonyl)amino]pentanoic Acid Hexyl Ester] | > 10 | 31.6 to 100 | 
COC[C@H](C[C@@H](Cc1ccc(-c2cccc(Cl)c2)cc1)NC(=O)c1cnn[nH]1)C(=O)O [Example 3, (2S,4S)-5-(3′-Chlorobiphenyl-4-yl)-2-methoxymethyl-4-[(3H-[1,2,3]triazole-4-carbonyl)amino]pentanoic Acid] | > 10 |  | ≧9.0
N[C@H](C[C@@H](Cc1ccc(-c2cc(Cl)ccc2F)cc1)NC(=O)c1cc(-c2ccccc2Cl)no1)C(=O)O [Example 16-24, (2R,4R)-2-Amino-5-(5′-chloro-2′-fluorobiphenyl-4-yl)-4-{[3-(2-chlorophenyl)-isoxazole-5-carbonyl]amino}pentanoic acid] | > 10 |  | ≧9.0
COC[C@H](C[C@@H](Cc1ccc(-c2ccccc2)cc1)NC(=O)c1c[nH]nn1)C(=O)O [Example 5, (2S,4S)-5-Biphenyl-4-yl-2-methoxymethyl-4-[(1H-[1,2,3]-triazole-4-carbonyl)amino]pentanoic Acid] | > 10 |  | ≧9.0
CCOC(=O)[C@H](N)C[C@@H](Cc1ccc(-c2cc(Cl)ccc2F)cc1)NC(=O)c1cc(C(C)=O)n[nH]1 [Example 16-10, (2R,4R)-4-[(5-Acetyl-2H-pyrazole-3-carbonyl)amino]-2-amino-5-(5′-chloro-2′-fluoro-biphenyl-4-yl)pentanoic acid ethyl ester] | > 10 | 10 to 31.6 | 
COC[C@H](C[C@@H](Cc1ccc(-c2cc(Cl)ccc2F)cc1)NC(=O)c1cc(OC)no1)C(=O)O [Example 2-6, (2S,4S)-5-(5′-Chloro-2′-fluorobiphenyl-4-yl)-4-[(3-methoxyisoxazole-5-carbonyl)-amino]-2-methoxymethylpentanoic acid] | > 10 |  | ≧9.0
Cc1cc(C(=O)NC(Cc2ccc(-c3cc(Cl)ccc3F)cc2)C[C@@H](CC#N)C(=O)O)sn1 (single isomer, unassigned) [Example 52-1] | > 10 | ≤ 1 | 
CCc1cc(C(=O)N[C@H](Cc2ccc(-c3cc(Cl)ccc3F)cc2)C[C@@H](CN)C(=O)O)on1 [Example 21-1, (2S,4S)-2-Aminomethyl-5-(5′-chloro-2′-fluorobiphenyl-4-yl)-4-[(3-ethylisoxazole-5-carbonyl)amino]pentanoic acid] | > 10 |  | ≧9.0
COC[C@H](C[C@@H](Cc1ccc(-c2cc(Cl)ccc2F)cc1)NC(=O)c1ncc(C)o1)C(=O)O [Example 2-15, (2S,4S)-5-(5′-Chloro-2′-fluorobiphenyl-4-yl)-2-methoxymethyl-4-[(5-methyloxazole-2-carbonyl)amino]pentanoic acid] | > 10 |  | ≧9.0
COC[C@H](C[C@@H](Cc1ccc(-c2cc(Cl)ccc2F)cc1)NC(=O)c1n[nH]c(C(F)(F)F)n1)C(=O)O [Example 2-2, (2S,4S)-5-(5′-Chloro-2′-fluorobiphenyl-4-yl)-2-methoxymethyl-4-[(5-trifluoromethyl-1H-[1,2,4]triazole-3-carbonyl)amino]pentanoic acid] | > 10 |  | ≧9.0
CCOC(=O)[C@H](N)C[C@@H](Cc1ccc(-c2cc(Cl)ccc2F)cc1)NC(=O)c1cnn[nH]1 [Example 14a, (2R,4R)-2-Amino-5-(5′-chloro-2′-fluorobiphenyl-4-yl)-4-[(3H-[1,2,3]triazole-4-carbonyl)amino]pentanoic Acid Ethyl Ester] | > 10 | 10 to 31.6 | 
CCOC(=O)[C@@H](C[C@@H](Cc1ccc(-c2cc(Cl)ccc2F)cc1)NC(=O)c1cnn[nH]1)CN1CC(F)C1 [Example 91a, (2S,4S)-5-(5′-Chloro-2′-fluorobiphenyl-4-yl)-2-(3-fluoroazetidin-1-ylmethyl)-4-[(3H-[1,2,3]triazole-4-carbonyl)amino]pentanoic Acid Ethyl Ester] | > 10 |  | 
CCc1cc(C(=O)N[C@H](Cc2ccc(-c3cc(Cl)ccc3F)cc2)C[C@@H](COC)C(=O)O)on1 [Example 1, (2S,4S)-5-(5′-Chloro-2′-fluorobiphenyl-4-yl)-4-[(3-ethylisoxazole-5-carbonyl)amino]-2-methoxymethylpentanoic Acid] | > 10 | ≤ 1 | 
Cc1ccccc1-c1n[nH]c(C(=O)N[C@H](Cc2ccc(-c3cc(Cl)ccc3F)cc2)C[C@@H](N)C(=O)O)c1F [Example 16-23, (2R,4R)-2-Amino-5-(5′-chloro-2′-fluorobiphenyl-4-yl)-4-[(4-fluoro-5-o-tolyl-2H-pyrazole-3-carbonyl)amino]pentanoic acid] | > 10 |  | ≧9.0
COC[C@H](C[C@@H](Cc1ccc(-c2cc(Cl)ccc2F)cc1)NC(=O)c1coc(C2CC2)n1)C(=O)O [Example 2-9, (2S,4S)-5-(5′-Chloro-2′-fluorobiphenyl-4-yl)-4-[(2-cyclopropyloxazole-4-carbonyl)amino]-2-methoxymethylpentanoic acid] | > 10 |  | ≧9.0
COC(=O)N[C@H](C[C@@H](Cc1ccc(-c2cc(Cl)ccc2F)cc1)NC(=O)c1ccc(Cl)cn1)C(=O)O [Example 30-12, (2R,4R)-5-(5′-Chloro-2′-fluorobiphenyl-4-yl)-4-[(5-chloro-pyridine-2-carbonyl)-amino]-2-methoxycarbonylaminopentanoic acid] | > 10 |  | ≧9.0
CCOC(=O)[C@@H](C[C@@H](Cc1ccc(-c2cc(Cl)ccc2F)cc1)NC(=O)c1cnn[nH]1)CN1CCOCC1 [Example 69b, (2S,4S)-5-(5′-Chloro-2′-fluorobiphenyl-4-yl)-2-morpholin-4-ylmethyl-4-[(3H-[1,2,3]triazole-4-carbonyl)amino]pentanoic Acid Ethyl Ester] | > 10 |  | 
CCOC[C@H](C[C@@H](Cc1ccc(-c2cc(Cl)ccc2F)cc1)NC(=O)c1[nH]nc(C2CC2)c1F)C(=O)O [Example 7-2, (2S,4S)-5-(5′-Chloro-2′-fluorobiphenyl-4-yl)-4-[(5-cyclopropyl-4-fluoro-2H-pyrazole-3-carbonyl)amino]-2-ethoxymethylpentanoic acid] | > 10 |  | ≧9.0
CCOC(=O)[C@@H](C[C@@H](Cc1ccc(-c2cc(Cl)ccc2F)cc1)NC(=O)c1cnn[nH]1)CN1CCC1 [Example 84a, (2S,4S)-2-Azetidin-1-ylmethyl-5-(5′-chloro-2′-fluorobiphenyl-4-yl)-4-[(3H-[1,2,3]triazole-4-carbonyl)amino]pentanoic Acid Ethyl Ester] | > 10 |  | 
CCOC(=O)[C@H](N)C[C@@H](Cc1ccc(-c2cc(Cl)ccc2F)cc1)NC(=O)c1coc(=O)[nH]1 [Example 16-32, (2R,4R)-2-Amino-5-(5′-chloro-2′-fluorobiphenyl-4-yl)-4-[(2-oxo-2,3-dihydro-oxazole-4-carbonyl)amino]pentanoic acid ethyl ester] | > 10 |  | 
